The source made the active and inactive calls. The rule behind the calls is not given here.
Tested on: rodent lifetime carcinogenesis bioassay, tumor incidence TD50
Experiment: carcinogenic potency in animals, long-term in vivo studies, CPDB compilation (AID 1745844)

CCN(CC)C(=S)S
TD50 (mouse, strain B6AKF1, females, oral dosing, site: lung, lesion: adenoma, dosed 76 weeks, study length 76 weeks): 607 mg/kg/day
TD50 (mouse, strain B6AKF1, males, oral dosing, site: any site (literature study), lesion: several types, types named in the paper, dosed 76 weeks, study length 76 weeks): 403 mg/kg/day
TD50 (mouse, strain B6AKF1, males, oral dosing, site: lung, lesion: adenoma, dosed 76 weeks, study length 76 weeks): 155 mg/kg/day
carcinogen call (mouse, strain B6C3F1, females, in feed, site: any site (literature study), lesion: several types, types named in the paper, dosed 108 weeks, study length 108 weeks): negative (inactive)
TD50 (mouse, strain B6C3F1, females, in feed, site: liver, lesion: hepatocellular adenoma + hepatocellular carcinoma + neoplastic nodule, dosed 108 weeks, study length 108 weeks): 27000 mg/kg/day
TD50 (mouse, strain B6C3F1, females, in feed, site: lung, lesion: alveolar/bronchiolar adenoma + alveolar/bronchiolar carcinoma, dosed 108 weeks, study length 108 weeks): 4760 mg/kg/day
carcinogen call (mouse, strain B6C3F1, males, in feed, site: any site (literature study), lesion: several types, types named in the paper, dosed 108 weeks, study length 108 weeks): negative (inactive)
TD50 (mouse, strain B6C3F1, males, in feed, site: lung, lesion: alveolar/bronchiolar adenoma + alveolar/bronchiolar carcinoma, dosed 108 weeks, study length 108 weeks): 10300 mg/kg/day
TD50 (mouse, strain B6C3F1, males, oral dosing, site: any site (literature study), lesion: several types, types named in the paper, dosed 76 weeks, study length 76 weeks): 71.4 mg/kg/day
TD50 (mouse, strain B6C3F1, males, oral dosing, site: liver, lesion: hepatoma, dosed 76 weeks, study length 76 weeks): 68.7 mg/kg/day
TD50 (mouse, strain B6C3F1, males, oral dosing, site: lung, lesion: adenoma, dosed 76 weeks, study length 76 weeks): 468 mg/kg/day
carcinogen call (rat, strain Fischer 344, females, in feed, site: any site (literature study), lesion: several types, types named in the paper, dosed 104 weeks, study length 104 weeks): negative (inactive)
carcinogen call (rat, strain Fischer 344, males, in feed, site: any site (literature study), lesion: several types, types named in the paper, dosed 104 weeks, study length 104 weeks): negative (inactive)

CC[C@@H]1NC(=O)[C@@H]2[C@H](Cl)[C@H](Cl)CN2C(=O)[C@H](CO)NC(=O)C[C@H](c2ccccc2)NC(=O)[C@H](CO)NC1=O
TD50 (mouse, strain ddNi, males, in feed, site: liver, lesion: hepatoma, dosed 160 weeks, study length 160 weeks): 99.5 mg/kg/day
TD50 (mouse, strain ddNi, males, in feed, site: liver, lesion: liver-cell adenoma, dosed 160 weeks, study length 160 weeks): 48.6 mg/kg/day
TD50 (mouse, strain ddNi, males, in feed, site: liver, lesion: liver-cell carcinoma, dosed 160 weeks, study length 160 weeks): 98.9 mg/kg/day
TD50 (mouse, strain ddNi, males, in feed, site: liver, lesion: several types, types named in the paper, dosed 160 weeks, study length 160 weeks): 23.6 mg/kg/day

COC1COC(OC2COC(OC3COC(OC4COC(OC)C(OS(=O)(=O)O)C4OS(=O)(=O)O)C(OC4OC(C(=O)O)C(OC)C(OS(=O)(=O)O)C4OS(=O)(=O)O)C3OS(=O)(=O)O)C(OS(=O)(=O)O)C2OS(=O)(=O)O)C(OS(=O)(=O)O)C1OS(=O)(=O)O (centres undefined)
TD50 (mouse, strain B6C3F1, females, by gavage, site: all sites, lesion: hemangioma + hemangiosarcoma, dosed 104 weeks, study length 104 weeks): 1700 mg/kg/day
TD50 (mouse, strain B6C3F1, females, by gavage, site: all sites, lesion: hemangioma, dosed 104 weeks, study length 104 weeks): 4340 mg/kg/day
TD50 (mouse, strain B6C3F1, females, by gavage, site: all sites, lesion: malignant lymphoma, dosed 104 weeks, study length 104 weeks): 927 mg/kg/day
TD50 (mouse, strain B6C3F1, females, by gavage, site: any site (literature study), lesion: several types, types named in the paper, dosed 104 weeks, study length 104 weeks): 660 mg/kg/day
TD50 (mouse, strain B6C3F1, females, by gavage, site: liver, lesion: hemangiosarcoma + hepatocellular adenoma + hepatocellular carcinoma, dosed 104 weeks, study length 104 weeks): 663 mg/kg/day
TD50 (mouse, strain B6C3F1, females, by gavage, site: liver, lesion: hemangiosarcoma, dosed 104 weeks, study length 104 weeks): 3160 mg/kg/day
TD50 (mouse, strain B6C3F1, females, by gavage, site: liver, lesion: hepatocellular adenoma + hepatoblastoma + hepatocellular carcinoma, dosed 104 weeks, study length 104 weeks): 867 mg/kg/day
TD50 (mouse, strain B6C3F1, females, by gavage, site: liver, lesion: hepatocellular adenoma + hepatocellular carcinoma, dosed 104 weeks, study length 104 weeks): 867 mg/kg/day
TD50 (mouse, strain B6C3F1, females, by gavage, site: liver, lesion: hepatocellular adenoma, dosed 104 weeks, study length 104 weeks): 991 mg/kg/day
TD50 (mouse, strain B6C3F1, males, by gavage, site: all sites, lesion: hemangiosarcoma, dosed 104 weeks, study length 104 weeks): 1340 mg/kg/day
TD50 (mouse, strain B6C3F1, males, by gavage, site: any site (literature study), lesion: several types, types named in the paper, dosed 104 weeks, study length 104 weeks): 297 mg/kg/day
TD50 (mouse, strain B6C3F1, males, by gavage, site: liver, lesion: hemangiosarcoma, dosed 104 weeks, study length 104 weeks): 1090 mg/kg/day
TD50 (mouse, strain B6C3F1, males, by gavage, site: liver, lesion: hepatocellular adenoma + hepatoblastoma + hepatocellular carcinoma, dosed 104 weeks, study length 104 weeks): 538 mg/kg/day
TD50 (mouse, strain B6C3F1, males, by gavage, site: liver, lesion: hepatocellular adenoma + hepatocellular carcinoma, dosed 104 weeks, study length 104 weeks): 499 mg/kg/day
TD50 (mouse, strain B6C3F1, males, by gavage, site: lung, lesion: alveolar/bronchiolar adenoma + alveolar/bronchiolar carcinoma, dosed 104 weeks, study length 104 weeks): 8000 mg/kg/day
TD50 (rat, strain Fischer 344, females, by gavage, site: any site (literature study), lesion: several types, types named in the paper, dosed 104 weeks, study length 104 weeks): 1980 mg/kg/day (inactive)
carcinogen call (rat, strain Fischer 344, males, by gavage, site: any site (literature study), lesion: several types, types named in the paper, dosed 104 weeks, study length 104 weeks): negative (inactive)
